COC1=CC(=O)C[C@@H](C)[C@]12Oc1c(Cl)c(OC)cc(OC)c1C2=O
Conditions	solubility (mole fraction)
in 1,2-dichloroethane, 290.05 K	0.0197
in 1,2-dichloroethane, 294.3 K	0.0209
in 1,2-dichloroethane, 300.25 K	0.0222
in 1,2-dichloroethane, 305.55 K	0.0236
in 1,2-dichloroethane, 310.05 K	0.0251
in 1,2-dichloroethane, 315.65 K	0.0268
in 1,2-dichloroethane, 319.35 K	0.0289
in 1,2-dichloroethane, 324.05 K	0.0311
in 1,2-dichloroethane, 329.65 K	0.0335
in 2-butanone, 289.65 K	0.00826
in 2-butanone, 296.95 K	0.00941
in 2-butanone, 302.95 K	0.0103
in 2-butanone, 308.25 K	0.0117
in 2-butanone, 315.05 K	0.0128
in 2-butanone, 320.4 K	0.0141
in 2-butanone, 325.45 K	0.0151
in 2-butanone, 330.35 K	0.0163
in DMAc, 296.2 K	0.0252
in DMAc, 301.25 K	0.0276
in DMAc, 305.75 K	0.0303
in DMAc, 310.75 K	0.0326
in DMAc, 314.95 K	0.0344
in DMAc, 319.25 K	0.0369
in DMAc, 324.75 K	0.0395
in DMAc, 330.05 K	0.0422
in DMAc, 336.15 K	0.0452
in DMAc, 340.25 K	0.0488
in DMAc, 345.75 K	0.0518
in DMAc, 350.55 K	0.0549
in DMAc, 354.78 K	0.0582
in DMSO, 296.75 K	0.0167
in DMSO, 301.15 K	0.0186
in DMSO, 306.15 K	0.0204
in DMSO, 310.85 K	0.0218
in DMSO, 315.55 K	0.0239
in DMSO, 320.55 K	0.026
in DMSO, 326.55 K	0.0282
in DMSO, 331.95 K	0.0302
in DMSO, 336.75 K	0.0324
in DMSO, 341.05 K	0.0345
in DMSO, 346.25 K	0.0368
in DMSO, 351.7 K	0.0393
in DMSO, 357.6 K	0.0415
in NMP, 295.55 K	0.0421
in NMP, 300.65 K	0.0451
in NMP, 305.75 K	0.048
in NMP, 310 K	0.0511
in NMP, 315.1 K	0.0541
in NMP, 320.6 K	0.057
in NMP, 325.45 K	0.0601
in NMP, 330.45 K	0.0631
in NMP, 335.55 K	0.0666
in NMP, 340.35 K	0.0704
in NMP, 345.55 K	0.0758
in NMP, 350.35 K	0.0795
in NMP, 355.65 K	0.083
in acetone, 281.95 K	0.00648
in acetone, 286.4 K	0.0071
in acetone, 291.85 K	0.00776
in acetone, 296.4 K	0.00853
in acetone, 300.8 K	0.00941
in acetone, 305.05 K	0.0102
in acetone, 310.25 K	0.0117
in acetone, 313.65 K	0.0129
in acetone, 317.05 K	0.0143

— BigSolDB 2.1
